According to patent US11834458B2, “Anti-cancer nuclear hormone receptor-targeting compounds” (Nuvation Bio Inc., priority 2021, dated 2023):
Where two headings read alike, the source gives them in different places.

Experiments:
LNCap cells = assay: Cell viability assay, LNCap; type: cell-based; details: Homo sapiens, 144 h
Protocol: (§1) Cell viability assay: LNCap, 22Rv1, MCF7, MDAMB361, T47D, and IEC6 cells are seeded at a density of 500-2000 cells/well in 96 well plates, and a ‘T0’ (timepoint 0) was included along with the assay plate. The plates are then incubated at 37° C., 5% CO2 in a cell culture incubator overnight. On the next day, the ‘T0’ plate was assayed using CellTiterGlo (Promega, Inc) according to the manufacturer's instructions. The appropriate compounds are diluted in DMSO and added to the assay plate (final DMSO concentration of 0.1-0.2%) on the next day. The assay plates are incubated for 6 days at 37° C., 5% CO2. After the incubation period, the plates are assayed using CellTiterGlo (Promega, Inc) according to the manufacturer's instructions and luminescence was read on the EnVision plate reader. Inhibition of the tested compounds was determined by the following formula: Inhibition rate (%)=(1−(RLU compound−RLU day0)/(RLU control−RLU day0))*100%. GraphPadPrism was used to analyze the data and determine GI50/IC50 values.

T47D cells = assay: Cell viability assay, T47D; type: cell-based; details: Homo sapiens, 144 h
Protocol: as §1

[1] = biological target: full-length androgen receptor (Homo sapiens (Human), UniProt P10275); assay: AR antagonism assay; type: cell-based
Sequence of full-length androgen receptor (P10275 whole entry): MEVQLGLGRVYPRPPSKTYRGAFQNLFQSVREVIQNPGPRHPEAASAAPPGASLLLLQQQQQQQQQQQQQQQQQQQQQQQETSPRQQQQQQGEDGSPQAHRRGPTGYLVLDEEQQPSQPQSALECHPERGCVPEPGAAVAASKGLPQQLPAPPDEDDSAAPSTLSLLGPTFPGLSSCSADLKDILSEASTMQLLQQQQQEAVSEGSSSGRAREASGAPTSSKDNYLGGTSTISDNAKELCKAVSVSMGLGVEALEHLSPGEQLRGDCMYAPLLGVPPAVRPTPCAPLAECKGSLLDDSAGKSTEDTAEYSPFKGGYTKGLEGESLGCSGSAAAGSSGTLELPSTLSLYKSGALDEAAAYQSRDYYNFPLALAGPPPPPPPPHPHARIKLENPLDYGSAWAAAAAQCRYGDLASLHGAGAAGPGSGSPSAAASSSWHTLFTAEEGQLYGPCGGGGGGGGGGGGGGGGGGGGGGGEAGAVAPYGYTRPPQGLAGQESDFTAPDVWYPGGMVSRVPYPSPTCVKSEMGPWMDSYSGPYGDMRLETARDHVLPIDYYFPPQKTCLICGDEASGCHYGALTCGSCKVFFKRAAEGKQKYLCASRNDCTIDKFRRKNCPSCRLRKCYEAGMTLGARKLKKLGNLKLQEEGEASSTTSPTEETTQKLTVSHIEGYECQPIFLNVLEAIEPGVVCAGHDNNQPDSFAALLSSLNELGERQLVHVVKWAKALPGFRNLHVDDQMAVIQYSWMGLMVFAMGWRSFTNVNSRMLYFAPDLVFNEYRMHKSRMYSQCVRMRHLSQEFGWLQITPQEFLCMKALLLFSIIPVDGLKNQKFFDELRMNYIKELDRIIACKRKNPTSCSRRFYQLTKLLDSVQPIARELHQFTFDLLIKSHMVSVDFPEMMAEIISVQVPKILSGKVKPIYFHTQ
Protocol: AR antagonism assay: To evaluate AR antagonist activity, test compound was added to the assay plate (top dose 10 μM, 3 fold serial dilution, 10 point dose response). HEK293 cells stably expressing the full-length androgen receptor were seeded at a density of 20,000 cells/well in the assay plate. The assay plate was then incubated at room temperature for 10 minutes and at 37° C., 5% CO2 for 20 minutes. Testosterone was added to the assay plate at 1 nM final concentration and the assay plate incubated at 37° C., 5% CO2 for 20 h. After the incubation period, Steady-glo was added to the assay plate and mixed at room temperature for 20 minutes on an orbital shaker, before reading out on the EnVision plate reader.

IEC6 cells = assay: Cell viability assay, IEC6; type: cell-based; details: Rattus norvegicus
Protocol: as §1

22Rv1 cells = assay: Cell viability assay, 22Rv1; type: cell-based; details: Homo sapiens
Protocol: as §1

AR = AR (Homo sapiens (Human), UniProt P10275, T878A); assay: AR binding assay
Sequence of AR (P10275 whole entry T878A): as the sequence (P10275 whole entry) above, with T878A counted along it
Protocol: AR binding assay: To assess AR binding, test compound (top dose 10 μM, 4 fold serial dilution, 8 point dose response) and control (progesterone) were transferred to the assay plate. Cytosol from LnCaP cells was added to the plate, followed by addition of radiolabeled ^3H-R1881 at a final concentration of 1 nM. The plate was sealed, and the reaction was incubated at 300 rpm at 4° C. for 24 hrs. Radioligand absorption buffer (10 mM Tris-HCl, pH 7.4; 1.5 mM EDTA; 1 mM DTT; 0.25% charcoal; 0.0025% dextran) was then added to the plate, mixed, and incubated at 4° C. for 15 minutes. The plate was then centrifuged at 3000 rpm for 30 minutes at 4° C. The supernatant was transferred to the scint-tube and Tri-carb was used for scintillation counting. The data was analyzed using GraphPadPrism v5.0 and binding IC50 was determined as the concentration where 50% inhibition of radioligand binding was observed.

[2] = LNCaP, read-out: LNCap (GI50, nM)
[3] = T47D, read-out: T47D (GI50, nM)
[4] = LNCap cells, 6 days, CellTiterGlo, read-out: LNCap (GI50)
[5] = 144 h, IEC-6 cells, 6 days, CellTiterGlo, read-out: IEC-6 (IC50)
[6] = 144 h, 22RV1 cells, 6 days, CellTiterGlo, read-out: 22RV1 (GI50)
[7] = cytosol from LnCaP cells, 3H-R1881 1 nM, 4° C. 24 hrs, read-out: AR binding
[8] = IEC-6, 144 h, read-out: IEC-6 (IC50, nM)

Structure (SMILES) | GI50 (LNCap cells; [2]) [nM] | GI50 (T47D cells; [3]) [nM] | GI50 (LNCap cells; [4]) [nM] | IC50 [1] [nM] | IC50 (IEC6 cells; [5]) [nM] | IC50 (IEC6 cells; [8]) [nM] | other results
CCc1c2c(nc3ccc(OC(=O)N4CCN(CCCCCCN(C)c5ccc([C@H]6C[C@@]7(C)[C@@H](CC[C@]7(OC(C)=O)C(C)=O)[C@@H]7CCC8=CC(=O)CCC8=C76)cc5)CC4)cc13)-c1cc3c(c(=O)n1C2)COC(=O)[C@]3(O)CC [Compound 4, (S)-4,11-diethyl-4-hydroxy-3,14-dioxo-3,4,12,14-tetrahydro-1H-pyrano[3′,4′:6,7]indolizino[1,2-b]quinolin-9-yl 4-(6-((4-((8S,11R,13S,14S,17R)-17-acetoxy-17-acetyl-13-methyl-3-oxo-2,3,6,7,8,11,12,13,14,15,16,17-dodecahydro-1H-cyclopenta[a]phenanthren-11-yl)phenyl)(methyl)amino)hexyl)piperazine-1-carboxylate] | 10 to 500 | 10 to 500 |  |  |  |  | 
CC[C@@]1(O)C(=O)OCc2c1cc1n(c2=O)Cc2cc3c(CN(C)C)c(OCCCCCOc4ccc(C(=O)N[C@H]5CC[C@H](Oc6ccc(C#N)c(Cl)c6)CC5)cc4)ccc3nc2-1 [Compound 7, N-((1r,4r)-4-(3-Chloro-4-cyanophenoxy)cyclohexyl)-4-((5-(((S)-10-((dimethylamino)methyl)-4-ethyl-4-hydroxy-3,14-dioxo-3,4,12,14-tetrahydro-1H-pyrano[3′,4′:6,7]indolizino[1,2-b]quinolin-9-yl)oxy)pentyl)oxy)benzamide] |  |  | 10 to 500 | 10 to 500 | 501 to 1000 |  | GI50 (22Rv1 cells; [6]): 10 to 500 nM; IC50 (AR; [7]): > 1000 nM
CC[C@@]1(O)C(=O)OCc2c1cc1n(c2=O)Cc2cc3c(CN(C)C)c(OC4CCN(CCCCCCN(C)c5ccc([C@H]6C[C@@]7(C)C(CC[C@]7(OC(C)=O)C(C)=O)C7CCC8=CC(=O)CCC8=C76)cc5)CC4)ccc3nc2-1 (stereo partly drawn) [Compound 9, (11R,13S,17R)-17-Acetyl-11-(4-((6-(4-(((S)-10-((dimethylamino)methyl)-4-ethyl-4-hydroxy-3,14-dioxo-3,4,12,14-tetrahydro-1H-pyrano[3′,4′:6,7]indolizino[1,2-b]quinolin-9-yl)oxy)piperidin-1-yl)hexyl)(methyl)amino)phenyl)-13-methyl-3-oxo-2,3,6,7,8,11,12,13,14,15,16,17-dodecahydro-1H-cyclopenta[a]phenanthren-17-yl acetate] |  |  | 501 to 1000 | > 1000 | > 1000 |  | GI50 (T47D cells; T47D cells, 6 days, CellTiterGlo, read-out: T47D (GI50)): 10 to 500 nM; IC50 (AR; [7]): 10 to 500 nM
CC[C@@]1(O)C(=O)OCc2c1cc1n(c2=O)Cc2cc3c(CN(C)C)c(OC4CCN(CCCCCCCN(C)c5ccc([C@H]6C[C@@]7(C)C(CC[C@]7(OC(C)=O)C(C)=O)C7CCC8=CC(=O)CCC8=C76)cc5)CC4)ccc3nc2-1 (stereo partly drawn) [Compound 10, (11R,13S,17R)-17-Acetyl-11-(4-((7-(4-(((S)-10-((dimethylamino)methyl)-4-ethyl-4-hydroxy-3,14-dioxo-3,4,12,14-tetrahydro-1H-pyrano[3′,4′:6,7]indolizino[1,2-b]quinolin-9-yl)oxy)piperidin-1-yl)heptyl)(methyl)amino)phenyl)-13-methyl-3-oxo-2,3,6,7,8,11,12,13,14,15,16,17-dodecahydro-1H-cyclopenta[a]phenanthren-17-yl-acetate] | 10 to 500 | 10 to 500 |  | > 1000 |  |  | IC50 (AR): 10 to 500 nM
CC[C@@]1(O)C(=O)OCc2c1cc1n(c2=O)Cc2cc3c(CN(C)C)c(OC(=O)N4C5CCC4CN(CCCCCCN(C)c4ccc([C@H]6C[C@@]7(C)[C@@H](CC[C@]7(OC(C)=O)C(C)=O)[C@@H]7CCC8=CC(=O)CCC8=C76)cc4)C5)ccc3nc2-1 [Compound 22, (S)-10-((Dimethylamino)methyl)-4-ethyl-4-hydroxy-3,14-dioxo-3,4,12,14-tetrahydro-1H-pyrano[3′,4′:6,7]indolizino[1,2-b]quinolin-9-yl 3-(6-((4-((8S,11R,13S,14S,17R)-17-acetoxy-17-acetyl-13-methyl-3-oxo-2,3,6,7,8,11,12,13,14,15,16,17-dodecahydro-1H-cyclopenta[a]phenanthren-11-yl)phenyl)(methyl)amino)hexyl)-3,8-diazabicyclo[3.2.1]octane-8-carboxylate] | 10 to 500 | 10 to 500 |  |  |  | 10 to 500 | 
CC[C@@]1(O)C(=O)OCc2c1cc1n(c2=O)Cc2cc3c(CN(C)C)c(OC(=O)N4C[C@@H](C)N(CCCCCCN(C)c5ccc([C@H]6C[C@@]7(C)[C@@H](CC[C@]7(OC(C)=O)C(C)=O)[C@@H]7CCC8=CC(=O)CCC8=C76)cc5)C[C@@H]4C)ccc3nc2-1 [Compound 23, (S)-10-((Dimethylamino)methyl)-4-ethyl-4-hydroxy-3,14-dioxo-3,4,12,14-tetrahydro-1H-pyrano[3′,4′:6,7]indolizino[1,2-b]quinolin-9-yl (2S,5R)-4-(6-((4-((8S,11R,13S,14S,17R)-17-acetoxy-17-acetyl-13-methyl-3-oxo-2,3,6,7,8,11,12,13,14,15,16,17-dodecahydro-1H-cyclopenta[a]phenanthren-11-yl)phenyl)(methyl)amino)hexyl)-2,5-dimethylpiperazine-1-carboxylate] | 501 to 1000 | 10 to 500 |  |  |  | 10 to 500 | 
CC[C@@]1(O)C(=O)OCc2c1cc1n(c2=O)Cc2cc3c(CN(C)C)c(OC(=O)N4C[C@H](C)N(CCCCCCN(C)c5ccc([C@H]6C[C@@]7(C)[C@@H](CC[C@]7(OC(C)=O)C(C)=O)[C@@H]7CCC8=CC(=O)CCC8=C76)cc5)C[C@H]4C)ccc3nc2-1 [Compound 24, (S)-10-((Dimethylamino)methyl)-4-ethyl-4-hydroxy-3,14-dioxo-3,4,12,14-tetrahydro-1H-pyrano[3′,4′:6,7]indolizino[1,2-b]quinolin-9-yl (2R,5S)-4-(6-((4-((8S,11R,13S,14S,17R)-17-acetoxy-17-acetyl-13-methyl-3-oxo-2,3,6,7,8,11,12,13,14,15,16,17-dodecahydro-1H-cyclopenta[a]phenanthren-11-yl)phenyl)(methyl)amino)hexyl)-2,5-dimethylpiperazine-1-carboxylate] | 10 to 500 | 10 to 500 |  |  |  | 501 to 1000 | 
CC[C@@]1(O)C(=O)OCc2c1cc1n(c2=O)Cc2cc3c(CN(C)C(=O)CO[C@H]4CC[C@H]5[C@@H]6CC[C@H]7CC(=O)CC[C@]7(C)[C@H]6CC[C@]45C)c(O)ccc3nc2-1 [Compound 25, 2-(((5S,8R,9S,10S,13S,14S,17S)-10,13-Dimethyl-3-oxohexadecahydro-1H-cyclopenta[a]phenanthren-17-yl)oxy)-N—(((S)-4-ethyl-4,9-dihydroxy-3,14-dioxo-3,4,12,14-tetrahydro-1H-pyrano[3′,4′:6,7]indolizino[1,2-b]quinolin-10-yl)methyl)-N-methylacetamide] |  |  | 10 to 500 |  | > 1000 |  | GI50 (22Rv1 cells; [6]): 10 to 500 nM
CC[C@@]1(O)C(=O)OCc2c1cc1n(c2=O)Cc2cc3c(CN(C)C)c(OC(=O)N4CCN(C(=O)C5CCN(c6ccc(C(=O)N[C@H]7CC[C@H](Oc8ccc(C#N)c(Cl)c8)CC7)nn6)CC5)CC4)ccc3nc2-1 [Compound 26, (S)-10-((Dimethylamino)methyl)-4-ethyl-4-hydroxy-3,14-dioxo-3,4,12,14-tetrahydro-1H-pyrano[3′,4′:6,7]indolizino[1,2-b]quinolin-9-yl 4-(1-(6-(((1r,4r)-4-(3-chloro-4-cyanophenoxy)cyclohexyl)carbamoyl)pyridazin-3-yl)piperidine-4-carbonyl)piperazine-1-carboxylate] | 10 to 500 |  |  |  |  | > 1000 | GI50 (22Rv1 cells; 22Rv1, 144 h, read-out: 22RV1 (GI50, nM)): 10 to 500 nM
